Laboratory results from ChEMBL document CHEMBL1129835, “Selective cytotoxicity of certain 9-substituted ellipticines for leukemia cells in a variety of leukemia cell cultures” (1997).

What was measured:
Assay type in all cases: functional
SNB-19 [1] = experiment: Effective dose to show cytotoxicity against CNS cancer SNB-19 cell line was determined; conditions: Homo sapiens, read-out: ED50 (the source's name)
DU-145 [2] = experiment: Effective dose to show cytotoxicity against prostate cancer DU-145 cell line was determined; conditions: Homo sapiens, read-out: ED50 (the source's name)
SR [3] = experiment: Effective dose to show cytotoxicity against leukemia SR cell line was determined; conditions: Homo sapiens, read-out: ED50 (the source's name)
PC-3 [4] = experiment: Cytotoxicity exhibited by the compound for total growth inhibition of prostate cancer PC-3 cell line; conditions: Homo sapiens
U-251 [5] = experiment: Concentration for 50% cell kill against CNS cancer U251 cell line was determined; conditions: Homo sapiens, read-out: LC50 (the source's name)
T47D = experiment: Cytotoxicity exhibited by the compound for total growth inhibition of breast cancer T-47D cell line; conditions: Homo sapiens
NCI-H322M [6] = experiment: Effective dose to show cytotoxicity against non-small cell lung cancer NCI-H322M cell line was determined; conditions: Homo sapiens, read-out: ED50 (the source's name)
CAKI-1 [7] = experiment: Cytotoxicity exhibited by the compound for total growth inhibition of renal cancer CAKI-1 cell line; conditions: Homo sapiens
LOX IMVI [8] = experiment: Concentration for 50% cell kill against melanoma LOX IMVI cell line was determined; conditions: Homo sapiens, read-out: LC50 (the source's name)
U-251 [9] = experiment: The compound was evaluated for cytotoxicity against U251 CNS cancer cell line; conditions: Homo sapiens
SNB-75 [10] = experiment: Effective dose to show cytotoxicity against CNS cancer SNB-75 cell line was determined; conditions: Homo sapiens, read-out: ED50 (the source's name)
SNB-19 [11] = experiment: Cytotoxicity exhibited by the compound for total growth inhibition of CNS cancer SNB-19 cell line; conditions: Homo sapiens
LOX IMVI [12] = experiment: The compound was evaluated for cytotoxicity against LOX-IMVI melanoma cell line; conditions: Homo sapiens
NCI-H522 = experiment: Effective dose to show cytotoxicity against non-small cell lung cancer NCI-H522 cell line was determined; conditions: Homo sapiens, read-out: ED50 (the source's name)
CAKI-1 [13] = experiment: Effective dose to show cytotoxicity against renal cancerCAKI-1 cell line was determined; conditions: Homo sapiens, read-out: ED50 (the source's name)
OVCAR-8 [14] = experiment: Cytotoxicity exhibited by the compound for total growth inhibition of ovarian cancer OVCAR-8 cell line; conditions: Homo sapiens
M14 [15] = experiment: Concentration for 50% cell kill against melanoma M14 cell line was determined; conditions: Homo sapiens, read-out: LC50 (the source's name)
CAKI-1 [16] = experiment: Concentration for 50% cell kill against renal cancerCAKI-1 cell line was determined; conditions: Homo sapiens, read-out: LC50 (the source's name)
SR [17] = experiment: Cytotoxicity exhibited by the compound for total growth inhibition of leukemia SR cell line; conditions: Homo sapiens
SN12C [18] = experiment: Effective dose to show cytotoxicity against renal cancer SN12C cell line was determined; conditions: Homo sapiens, read-out: ED50 (the source's name)
CCRF-CEM [19] = experiment: Effective dose to show cytotoxicity against leukemia CCRF-CEM cell line was determined; conditions: Homo sapiens, read-out: ED50 (the source's name)
SN12C [20] = experiment: Concentration for 50% cell kill against renal cancer SN12C cell line was determined; conditions: Homo sapiens, read-out: LC50 (the source's name)
SN12C [21] = experiment: Cytotoxicity exhibited by the compound for total growth inhibition of renal cancer SN12C cell line; conditions: Homo sapiens
NCI-H322M [22] = experiment: Concentration for 50% cell kill against non-small cell lung cancer NCI-H322M cell line was determined; conditions: Homo sapiens, read-out: LC50 (the source's name)
PC-3 [23] = experiment: The compound was evaluated for cytotoxicity against PC-3 prostate cancer cell line; conditions: Homo sapiens
CCRF-CEM [24] = experiment: Cytotoxicity exhibited by the compound for total growth inhibition of leukemia CCRF-CEM cell line; conditions: Homo sapiens
RPMI-8226 = experiment: Concentration for 50% cell kill against leukemia RPMI-8226 cell line was determined; conditions: Homo sapiens, read-out: LC50 (the source's name)
MOLT-4 [25] = experiment: The compound was evaluated for cytotoxicity against MOLT-4 leukemia cell line; conditions: Homo sapiens
K562 [26] = experiment: Cytotoxicity exhibited by the compound for total growth inhibition of leukemia K-562 cell line; conditions: Homo sapiens
HL-60 = experiment: Cytotoxicity exhibited by the compound for total growth inhibition of leukemia HL-60 (TB) cell line; conditions: Homo sapiens
SNB-75 [27] = experiment: Cytotoxicity exhibited by the compound for total growth inhibition of CNS cancer SNB-75 cell line; conditions: Homo sapiens
RXF 393 [28] = experiment: Cytotoxicity exhibited by the compound for total growth inhibition of renal cancer RXF 393 cell line; conditions: Homo sapiens
IGROV-1 [29] = experiment: Concentration for 50% cell kill against ovarian cancer IGROV 1 cell line was determined; conditions: Homo sapiens, read-out: LC50 (the source's name)
IGROV-1 [30] = experiment: The compound was evaluated for cytotoxicity against IGROV1 ovarian cancer cell line; conditions: Homo sapiens
OVCAR-3 = experiment: Effective dose to show cytotoxicity against ovarian cancer OVCAR-3 cell line was determined; conditions: Homo sapiens, read-out: ED50 (the source's name)
DU-145 [31] = experiment: Concentration for 50% cell kill against prostate cancerDU-145 cell line was determined; conditions: Homo sapiens, read-out: LC50 (the source's name)
IGROV-1 [32] = experiment: Cytotoxicity exhibited by the compound for total growth inhibition of ovarian cancer IGROV 1 cell line; conditions: Homo sapiens
DU-145 [33] = experiment: Cytotoxicity exhibited by the compound for total growth inhibition of prostate cancer DU-145 cell line; conditions: Homo sapiens
K562 [34] = experiment: Concentration for 50% cell kill against leukemia K-562 cell line was determined; conditions: Homo sapiens, read-out: LC50 (the source's name)
LOX IMVI [35] = experiment: Effective dose to show cytotoxicity against melanomaLOX IMVI cell line was determined; conditions: Homo sapiens, read-out: ED50 (the source's name)
M14 [36] = experiment: Cytotoxicity exhibited by the compound for total growth inhibition of melanoma M14 cell line; conditions: Homo sapiens
OVCAR-8 [37] = experiment: Concentration for 50% cell kill against ovarian cancerOVCAR-8 cell line was determined; conditions: Homo sapiens, read-out: LC50 (the source's name)
RXF 393 [38] = experiment: Effective dose to show cytotoxicity against renal cancer RXF 393 cell line was determined; conditions: Homo sapiens, read-out: ED50 (the source's name)
MDA-MB-453 = experiment: Concentration for 50% cell kill against breast cancer MDA-MB-435 cell line was determined; conditions: Homo sapiens, read-out: LC50 (the source's name)
SNB-75 [39] = experiment: Concentration for 50% cell kill against CNS cancer SNB-75 cell line was determined; conditions: Homo sapiens, read-out: LC50 (the source's name)
MOLT-4 [40] = experiment: Cytotoxicity exhibited by the compound for total growth inhibition of leukemia MOLT-4 cell line; conditions: Homo sapiens
HCT-116 = experiment: Concentration for 50% cell kill against colon cancer HCT116 cell line was determined; conditions: Homo sapiens, read-out: LC50 (the source's name)

## Cc1c2ccncc2c(C)c2c1[nH]c1ccc(CO)cc12
SNB-19 [1]
  EC50: 210 nM
DU-145 [2]
  EC50: 1290 nM
SR [3]
  EC50: 40 nM
PC-3 [4]
  TGI: 3600 nM
U-251 [5]
  CC50: > 100000 nM
T47D
  TGI: 18400 nM
NCI-H322M [6]
  EC50: 620 nM
CAKI-1 [7]
  TGI: 13400 nM
LOX IMVI [8]
  CC50: > 100000 nM
U-251 [9]
  GI50: 280 nM
SNB-75 [10]
  EC50: 490 nM
SNB-19 [11]
  TGI: 11500 nM
LOX IMVI [12]
  GI50: 370 nM
NCI-H522
  EC50: 300 nM
CAKI-1 [13]
  EC50: 370 nM
OVCAR-8 [14]
  TGI: 11300 nM
M14 [15]
  CC50: 34100 nM
CAKI-1 [16]
  CC50: 52600 nM
SR [17]
  TGI: 490 nM
SN12C [18]
  EC50: 220 nM
CCRF-CEM [19]
  EC50: 60 nM
SN12C [20]
  CC50: 1910 nM
SN12C [21]
  TGI: 3470 nM
NCI-H322M [22]
  CC50: 35300 nM
PC-3 [23]
  GI50: 450 nM
CCRF-CEM [24]
  TGI: 1010 nM
RPMI-8226
  CC50: 5570 nM
MOLT-4 [25]
  GI50: 10 nM
K562 [26]
  TGI: 110 nM
HL-60
  TGI: 110 nM
SNB-75 [27]
  TGI: 2630 nM
RXF 393 [28]
  TGI: 3890 nM
IGROV-1 [29]
  CC50: 62000 nM
IGROV-1 [30]
  GI50: 180 nM
OVCAR-3
  EC50: 700 nM
DU-145 [31]
  CC50: 35000 nM
IGROV-1 [32]
  TGI: 11700 nM
DU-145 [33]
  TGI: 11900 nM
K562 [34]
  CC50: > 100000 nM
LOX IMVI [35]
  EC50: 370 nM
M14 [36]
  TGI: 3650 nM
OVCAR-8 [37]
  CC50: 55200 nM
RXF 393 [38]
  EC50: 1610 nM
MDA-MB-453
  CC50: 6020 nM
SNB-75 [39]
  CC50: 14900 nM
MOLT-4 [40]
  TGI: 40 nM
HCT-116
  CC50: > 100000 nM
